Each compound was assayed against HEK293 cells with stable expression of the GRIN1 gene and tetracycline-inducible expression of the GRIN2B gene (NMDA receptor, NR2B) (Homo sapiens, UniProt Q13224) (assay: Fluo-8 Ca2+ flux assay: reversal of Ro 25-6981-mediated suppression of the Ca2+ response to co-agonist (glutamate/glycine)). Settings: reversal of the Ro 25-6981 suppression of the Ca2+ response to co-agonist (glutamate/glycine).
Type: cell-based
Also: test concentration or dose not given here.

Sequence of HEK293 cells with stable expression of the GRIN1 gene and tetracycline-inducible expression of the GRIN2B gene (NMDA receptor, NR2B) (Q13224 27-1484, other chains not shown): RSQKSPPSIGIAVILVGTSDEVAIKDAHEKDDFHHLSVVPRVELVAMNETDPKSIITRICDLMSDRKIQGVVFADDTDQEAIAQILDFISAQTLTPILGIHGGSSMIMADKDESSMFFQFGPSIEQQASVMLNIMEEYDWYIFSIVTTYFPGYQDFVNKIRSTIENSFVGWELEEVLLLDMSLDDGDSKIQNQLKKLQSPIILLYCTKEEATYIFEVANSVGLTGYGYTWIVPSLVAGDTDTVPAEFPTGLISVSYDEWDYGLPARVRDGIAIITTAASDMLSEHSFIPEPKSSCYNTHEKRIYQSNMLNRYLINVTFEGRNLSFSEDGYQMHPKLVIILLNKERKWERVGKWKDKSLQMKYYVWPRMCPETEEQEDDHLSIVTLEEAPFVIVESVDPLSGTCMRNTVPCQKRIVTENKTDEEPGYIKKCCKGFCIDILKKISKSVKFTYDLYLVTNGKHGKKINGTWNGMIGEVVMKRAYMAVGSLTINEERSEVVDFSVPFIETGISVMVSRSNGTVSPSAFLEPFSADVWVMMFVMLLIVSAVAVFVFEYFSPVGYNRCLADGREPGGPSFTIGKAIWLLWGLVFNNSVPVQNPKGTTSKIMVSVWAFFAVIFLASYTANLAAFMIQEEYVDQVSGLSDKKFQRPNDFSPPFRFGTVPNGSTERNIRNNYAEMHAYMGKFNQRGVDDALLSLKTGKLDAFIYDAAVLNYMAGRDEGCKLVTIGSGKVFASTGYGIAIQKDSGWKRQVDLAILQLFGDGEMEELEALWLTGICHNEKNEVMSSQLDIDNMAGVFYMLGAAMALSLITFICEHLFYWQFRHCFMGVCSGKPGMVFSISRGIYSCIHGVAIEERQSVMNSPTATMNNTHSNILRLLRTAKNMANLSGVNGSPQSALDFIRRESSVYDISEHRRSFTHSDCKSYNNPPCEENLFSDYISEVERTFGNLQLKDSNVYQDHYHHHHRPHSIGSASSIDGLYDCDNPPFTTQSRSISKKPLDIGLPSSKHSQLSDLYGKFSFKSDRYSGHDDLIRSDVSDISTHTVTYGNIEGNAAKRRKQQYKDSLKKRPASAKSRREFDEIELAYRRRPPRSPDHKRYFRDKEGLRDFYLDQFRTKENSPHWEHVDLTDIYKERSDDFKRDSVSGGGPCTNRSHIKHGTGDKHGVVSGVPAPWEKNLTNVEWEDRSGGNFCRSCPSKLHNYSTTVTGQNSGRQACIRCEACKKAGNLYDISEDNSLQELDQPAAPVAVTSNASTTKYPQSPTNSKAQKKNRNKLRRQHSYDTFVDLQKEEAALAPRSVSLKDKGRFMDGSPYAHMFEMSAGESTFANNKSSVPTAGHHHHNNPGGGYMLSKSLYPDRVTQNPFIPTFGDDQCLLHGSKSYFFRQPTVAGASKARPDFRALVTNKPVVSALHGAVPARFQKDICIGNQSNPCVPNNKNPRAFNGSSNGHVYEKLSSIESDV

Row | Structure (SMILES) | Response Recovered (%)
1 | Cn1cc(-n2cc(-c3ccc(F)c(Cl)c3)c3c(=O)n(CC(=O)N4CC(C)(F)C4)ccc32)nn1 [Example 271, 3-(3-chloro-4-fluorophenyl)-5-(2-(3-fluoro-3-methylazetidin-1-yl)-2-oxoethyl)-1-(1-methyl-1H-1,2,3-triazol-4-yl)-1H-pyrrolo[3,2-c]pyridin-4(5H)-one] | 140
2 | CCn1cc(-c2ccc(Cl)c(Cl)c2)c2c(=O)n(CC(=O)N3CCC(F)C3)ccc21 (stereo not shown) [Example 272, 3-(3,4-dichlorophenyl)-1-ethyl-5-(2-(3-fluoropyrrolidin-1-yl)-2-oxoethyl)-1H-pyrrolo[3,2-c]pyridin-4(5H)-one] | 33
3 | O=C(Cn1ccc2c(c(-c3ccc(Cl)c(Cl)c3)cn2CCF)c1=O)N1CCC(F)C1 (stereo not shown) [Example 273, 3-(3,4-dichlorophenyl)-1-(2-fluoroethyl)-5-[2-(3-fluoropyrrolidin-1-yl)-2-oxoethyl]-1H,4H,5H-pyrrolo[3,2-c]pyridin-4-one] | 93
4 | O=C(Cn1ccc2c(c(-c3ccc(Cl)c(Cl)c3)cn2CC(F)(F)F)c1=O)N1CCC(F)C1 (stereo not shown) [Example 275, 3-(3,4-dichlorophenyl)-5-(2-(3-fluoropyrrolidin-1-yl)-2-oxoethyl)-1-(2,2,2-trifluoroethyl)-1H-pyrrolo[3,2-c]pyridin-4(5H)-one] | 100
5 | O=C(Cn1ccc2c(c(-c3ccc(F)c(C(F)(F)F)c3)cn2CC(F)F)c1=O)N1CCC(F)C1 (stereo not shown) [Example 279, 1-(2,2-difluoroethyl)-3-(4-fluoro-3-(trifluoromethyl)phenyl)-5-(2-(3-fluoropyrrolidin-1-yl)-2-oxoethyl)-1H-pyrrolo[3,2-c]pyridin-4(5H)-one] | 71
6 | CC1(F)CN(C(=O)Cn2ccc3c(c(-c4ccc(F)c(Cl)c4)cn3CC(F)(F)F)c2=O)C1 [Example 280, 3-(3-chloro-4-fluorophenyl)-5-(2-(3-fluoro-3-methylazetidin-1-yl)-2-oxoethyl)-1-(2,2,2-trifluoroethyl)-1H-pyrrolo[3,2-c]pyridin-4(5H)-one] | 73
7 | CC1(F)CN(C(=O)Cn2ccc3c(c(-c4ccc(F)c(Cl)c4)cn3CCF)c2=O)C1 [Example 281, 3-(3-chloro-4-fluorophenyl)-5-(2-(3-fluoro-3-methylazetidin-1-yl)-2-oxoethyl)-1-(2-fluoroethyl)-1H-pyrrolo[3,2-c]pyridin-4(5H)-one] | 150
8 | CC1(F)CN(C(=O)Cn2ccc3c(c(-c4ccc(F)c(Cl)c4)cn3C3COC3)c2=O)C1 [Example 282, 3-(3-chloro-4-fluorophenyl)-5-(2-(3-fluoro-3-methylazetidin-1-yl)-2-oxoethyl)-1-(oxetan-3-yl)-1,5-dihydro-4H-pyrrolo[3,2-c]pyridin-4-one] | 120
9 | Cn1cc(-n2cc(-c3ccc(Cl)c(Cl)c3)c3c(=O)n(CC(=O)N4CCC(F)C4)ccc32)cn1 (stereo not shown) [Example 283, 3-(3,4-dichlorophenyl)-5-(2-(3-fluoropyrrolidin-1-yl)-2-oxoethyl)-1-(1-methyl-1H-pyrazol-4-yl)-1H-pyrrolo[3,2-c]pyridin-4(5H)-one] | 82
10 | Cn1cc(-n2cc(-c3ccc(Cl)c(Cl)c3)c3c(=O)n(CC(=O)N4CC(C)(F)C4)ccc32)cn1 [Example 284, 3-(3,4-dichlorophenyl)-5-(2-(3-fluoro-3-methylazetidin-1-yl)-2-oxoethyl)-1-(1-methyl-1H-pyrazol-4-yl)-1H-pyrrolo[3,2-c]pyridin-4(5H)-one] | 5.2
11 | CC1(F)CN(C(=O)Cn2ccc3c(c(-c4ccc(F)c(Cl)c4)cn3C3CC3)c2=O)C1 [Example 285, 3-(3-chloro-4-fluorophenyl)-1-cyclopropyl-5-(2-(3-fluoro-3-methylazetidin-1-yl)-2-oxoethyl)-1H-pyrrolo[3,2-c]pyridin-4(5H)-one] | 140
12 | Cn1cc(-n2cc(-c3ccc(F)c(Cl)c3)c3c(=O)n(CC(=O)N4CC(C)(F)C4)ccc32)cn1 [Example 286, 3-(3-chloro-4-fluorophenyl)-5-(2-(3-fluoro-3-methylazetidin-1-yl)-2-oxoethyl)-1-(1-methyl-1H-pyrazol-4-yl)-1H-pyrrolo[3,2-c]pyridin-4(5H)-one] | 130
13 | CC1(F)CN(C(=O)Cn2ccc3c(c(-c4ccc(F)c(C(F)(F)F)c4)cn3C3CC3)c2=O)C1 [Example 287, 1-cyclopropyl-3-(4-fluoro-3-(trifluoromethyl)phenyl)-5-(2-(3-fluoro-3-methylazetidin-1-yl)-2-oxoethyl)-1H-pyrrolo[3,2-c]pyridin-4(5H)-one] | 140
14 | CC1(F)CN(C(=O)Cn2ccc3c(c(-c4ccc(Cl)c(Cl)c4)cn3C3CC3)c2=O)C1 [Example 288, 1-cyclopropyl-3-(3,4-dichlorophenyl)-5-(2-(3-fluoro-3-methylazetidin-1-yl)-2-oxoethyl)-1H-pyrrolo[3,2-c]pyridin-4(5H)one] | 130
15 | CC1(F)CN(C(=O)Cn2ccc3c(c(-c4cnc(Cl)c(Cl)c4)cn3C3CC3)c2=O)C1 [Example 289, 1-cyclopropyl-3-(5,6-dichloropyridin-3-yl)-5-(2-(3-fluoro-3-methylazetidin-1-yl)-2-oxoethyl)-1H-pyrrolo[3,2-c]pyridin-4(5H)-one] | 120
16 | Cc1cc(-c2cn(C3CC3)c3ccn(CC(=O)N4CC(C)(F)C4)c(=O)c23)ccc1F [Example 290, 1-cyclopropyl-5-(2-(3-fluoro-3-methylazetidin-1-yl)-2-oxoethyl)-3-(4-fluoro-3-methylphenyl)-1H-pyrrolo[3,2-c]pyridin-4(5H)-one] | 120
17 | CC1(F)CN(C(=O)Cn2ccc3c(c(-c4cnc(F)c(Cl)c4)cn3C3CC3)c2=O)C1 [Example 291, 3-(5-chloro-6-fluoropyridin-3-yl)-1-cyclopropyl-5-(2-(3-fluoro-3-methylazetidin-1-yl)-2-oxoethyl)-1H-pyrrolo[3,2-c]pyridin-4(5H)-one] | 80
18 | Cc1cc(-c2cn(C3CC3)c3ccn(CC(=O)N4CC(C)(F)C4)c(=O)c23)ccc1Cl [Example 292, 3-(4-chloro-3-methylphenyl)-1-cyclopropyl-5-(2-(3-fluoro-3-methylazetidin-1-yl)-2-oxoethyl)-1,5-dihydro-4H-pyrrolo[3,2-c]pyridin-4-one] | 140
19 | O=C(Cn1ccc2c(c(-c3ccc(Cl)c(Cl)c3)cn2C2CC2)c1=O)N1CC(F)(CF)C1 [Example 293, 1-cyclopropyl-3-(3,4-dichlorophenyl)-5-(2-(3-fluoro-3-(fluoromethyl)azetidin-1-yl)-2-oxoethyl)-1,5-dihydro-4H-pyrrolo[3,2-c]pyridin-4-one] | 160
20 | CCC1(F)CN(C(=O)Cn2ccc3c(c(-c4cnc(Cl)c(Cl)c4)cn3C3CC3)c2=O)C1 [Example 294, 1-cyclopropyl-3-(5,6-dichloropyridin-3-yl)-5-(2-(3-ethyl-3-fluoroazetidin-1-yl)-2-oxoethyl)-1,5-dihydro-4H-pyrrolo[3,2-c]pyridin-4-one] | 88
21 | O=C(Cn1cnc2cccc(-c3ccc(Cl)cc3)c2c1=O)N1CCCC1 [Example 295, 5-(4-chlorophenyl)-3-(2-oxo-2-(pyrrolidin-1-yl)ethyl)quinazolin-4(3H)-one] | 1
22 | O=C(Cn1cnc2cccc(-c3ccc(Cl)cc3)c2c1=O)N1CC(F)(F)C1 [Example 296, 5-(4-chlorophenyl)-3-(2-(3,3-difluoroazetidin-1-yl)-2-oxoethyl)quinazolin-4(3H)-one] | 9
